Here are results for 15 compounds from US7799824B2, “Quaternary salt CCR2 antagonists” (OraPharma, Inc., priority 2004, dated 2010).

The target of this experiment is T1, CCR2 (Homo sapiens, UniProt P41597).
T1 sequence (P41597 1-360 isoform P41597-2): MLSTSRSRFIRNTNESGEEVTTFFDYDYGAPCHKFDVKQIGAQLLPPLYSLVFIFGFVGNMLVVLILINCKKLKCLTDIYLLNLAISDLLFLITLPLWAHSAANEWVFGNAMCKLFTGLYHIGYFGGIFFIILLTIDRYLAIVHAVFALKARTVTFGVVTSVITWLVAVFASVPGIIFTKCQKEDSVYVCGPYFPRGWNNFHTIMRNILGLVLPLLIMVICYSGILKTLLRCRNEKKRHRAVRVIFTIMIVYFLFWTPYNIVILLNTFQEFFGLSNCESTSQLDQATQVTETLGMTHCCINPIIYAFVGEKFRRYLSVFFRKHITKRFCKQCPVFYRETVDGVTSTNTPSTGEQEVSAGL
Briefly: MCP-1 Receptor Binding Assay in THP-1 Cells. The conditions noted are these: for IC50: THP-1 cells, 0.5 nM 125I labeled MCP-1, 2 hours at 30° C., read-out: Mean Ligand Binding IC50 (inhibition of MCP-1 binding to CCR2); for inhibition at 25 µM: MCP-1 binding to CCR2, test concentration of 25 μM, unless indicated otherwise, read-out: % Inhibition Ligand Binding. The protocol: THP-1 cells were obtained from American Type Culture Collection (Manassas, Va., USA). […] The cell density was maintained between 0.5×10^6 cells/mL.
Cells were then harvested onto a filter plate, dried, and 20 μL of Microscint 20 was added to each well. Plates were counted in a TopCount NXT, Microplate Scintillation & Luminescence Counter (Perkin-Elmer Life Sciences, Inc. Boston, Mass.). Blank values (buffer only) were subtracted from all values and drug treated values were compared to vehicle treated values. 1 μM cold MCP-1 was used for nonspecific binding.

Turning to `C[N+](C)(Cc1ccc(CNC(=O)C=Cc2cccc(Br)c2)cc1)C1CCCCC1` [Cpd 1, (4-{[3-(3-bromo-phenyl)-acryloylamino]-methyl}-benzyl)-cyclohexyl-dimethyl-ammonium iodide], the IC50 is 2.3 µM. Still for that read-out and setting: to `C[N+](C)(Cc1ccc(CNC(=O)c2cccc(Br)c2)cc1)C1CCCCC1` [Cpd 2, {4-[(3-bromo-benzoylamino)-methyl]-benzyl}-cyclohexyl-dimethyl-ammonium iodide] belongs 5.5 µM; to `C[N+](C)(Cc1ccc(CNC(=O)c2cccc(C(F)(F)F)c2)cc1)C1CCCCC1` [Cpd 3, cyclohexyl-dimethyl-{4-[(3-trifluoromethyl-benzoylamino)-methyl]-benzyl}-ammonium iodide], 4.3 µM; to `C[N+](C)(Cc1ccc(CNC(=O)C=Cc2ccc(Cl)c(Cl)c2)cc1)C1CCOCC1` [Cpd 4, (4-{[3-(3,4-dichloro-phenyl)-acryloylamino]-methyl}-benzyl)-dimethyl-(tetrahydro-pyran-4-yl)-ammonium iodide], 3.1 µM.

As to `C[N+](C)(Cc1ccc(CNC(=O)C=Cc2cccc(Br)c2)cc1)C1CCOCC1` [Cpd 5, (4-{[3-(3-bromo-phenyl)-acryloylamino]-methyl}-benzyl)-dimethyl-(tetrahydro-pyran-4-yl)-ammonium iodide], the half-maximal inhibitory concentration (IC50) was 8.3 µM. `C[N+](C)(Cc1cccc(NC(=O)c2cccc(Br)c2)c1)C1CCOCC1` [Cpd 8, [3-(3-bromo-benzoylamino)-benzyl]-dimethyl-(tetrahydro-pyran-4-yl)-ammonium iodide]: the inhibition at 25 µM worked out at 34%. For the compound `C[N+](C)(Cc1ccc(NC(=O)c2cc(Cl)ccc2Cl)cc1)C1CCOCC1` [Cpd 11, [4-(2,5-dichloro-benzoylamino)-benzyl]-dimethyl-(tetrahydro-pyran-4-yl)-ammonium iodide], the IC50 worked out at 3.1 µM. Consider `C[N+](C)(Cc1ccc(NC(=O)c2c(Cl)cccc2Cl)cc1)C1CCOCC1` [Cpd 12, [4-(2,6-dichloro-benzoylamino)-benzyl]-dimethyl-(tetrahydro-pyran-4-yl)-ammonium iodide], for which the inhibition at 25 µM was found to be 38%. As for `C[N+](C)(Cc1ccc(NC(=O)c2ccc(Cl)c(Cl)c2)cc1)C[C@@H]1CCCO1` [Cpd 15, (2S)-[4-(3,4-dichloro-benzoylamino)-benzyl]-dimethyl-(tetrahydro-furan-2-ylmethyl)-ammonium iodide], the IC50 came out at 2 µM. As for `C[N+](C)(Cc1ccc(NC(=O)c2ccc(Cl)c(Cl)c2)cc1)C[C@H]1CCCO1` [Cpd 16, (2R)-[4-(3,4-dichloro-benzoylamino)-benzyl]-dimethyl-(tetrahydro-furan-2-ylmethyl)-ammonium iodide], the IC50 is 0.85 µM. Turning to `C[N+](C)(Cc1ccc(NC(=O)c2ccc(Cl)c(Cl)c2)cc1)C1CCSC1` (stereo not drawn) [Cpd 19, [4-(3,4-dichloro-benzoylamino)-benzyl]-dimethyl-(tetrahydro-thien-3-yl)-ammonium iodide], the IC50 came out at 0.005 µM. For the compound `CC[N+](C)(Cc1ccc(NC(=O)c2ccc(Cl)c(Cl)c2)cc1)C1CCOCC1` (stereo not drawn) [Cpd 21, [4-(3,4-dichloro-benzoylamino)-benzyl]-ethyl-methyl-(tetrahydro-pyran-4-yl)-ammonium iodide], the IC50 was found to be 0.15 µM. Still for that read-out and setting: next, `CCC[N+](C)(Cc1ccc(NC(=O)c2ccc(Cl)c(Cl)c2)cc1)C1CCOCC1` (stereo not drawn) [Cpd 22, [4-(3,4-dichloro-benzoylamino)-benzyl]-methyl-propyl-(tetrahydro-pyran-4-yl)-ammonium iodide]: 1.6 µM.

Turning to `Cc1c(Cl)cccc1C(=O)Nc1ccc(C[N+](C)(C)C2CCOCC2)cc1` [Cpd 25, [4-(3-chloro-2-methyl-benzoylamino)-benzyl]-dimethyl-(tetrahydro-pyran-4-yl)-ammonium iodide], the inhibition at 25 µM was 15%.

With `COc1ccc(C(=O)Nc2ccc(C[N+](C)(C)C3CCOCC3)cc2)cc1Cl` [Cpd 27, [4-(3-chloro-4-methoxy-benzoylamino)-benzyl]-dimethyl-(tetrahydro-pyran-4-yl)-ammonium iodide], the IC50 was 0.75 µM.

Broadly, the IC50 is the concentration that inhibits the measured activity by half. By inhibition is commonly meant the drop in the measured response relative to a control, in per cent.
